From patent US9884063B2, “Amido-substituted azole compounds” (Bayer Pharma Aktiengesellschaft, priority 2014, dated 2018)

Key:
[1] = system: HEK293 FOP control reporter cell line; test: HEK293 FOP Assay (FOP control vector luciferase reporter); assay type: cell-based; settings: Homo sapiens
Procedure: In a parallel approach, HEK293 cells were cotransfected with the FOP control vector and pcDNA3. The FOP vector is identical to the TOP construct, but it contains instead of functional TCF elements a randomized, non-functional sequence. For this transfection a stable transfected cell line was generated as well, based on selection with Geneticin (1 mg/ml).
(§1) In preparation of the assay, the two cell lines were plated 24 hrs before beginning the test at 10000 cells per well in a 384 micro titre plate (MTP) in 30 μl growth medium. […] The recombinant human Wnt-3a was thereby applied between 2500 and 5 ng/ml in two-fold dilution steps.
(§2) Selective inhibitory activity for small molecules on the wildtype Wnt pathway was determined after parallel incubation of both (TOP and FOP) HEK293 reporter cell lines with a compound dilution series from 50 μM to 15 nM in steps of 3.16-fold dilutions in CAFTY buffer (130 mM sodium chloride, 5 mM potassium chloride, 20 mM HEPES, 1 mM magnesium chloride, 5 mM sodium bicarbonate, pH 7.4) containing 2 mM Ca^2+ and 0.01% BSA.
(§3) The compounds were thereby serially prediluted in 100% DMSO and thereafter 50 fold into the CAFTY compound dilution buffer (described above).

[2] = system: wildtype Wnt signaling cascade; test: HEK293 TOP Assay (Super TopFlash luciferase reporter, Wnt-3a stimulated); assay type: cell-based; settings: Homo sapiens, HEK293, 16 h
Procedure: In order to discover and characterize small molecules which inhibit the wildtype Wnt pathway, a cellular reporter assay was employed. The corresponding assay cell was generated by transfection of the mammalian cell line HEK293 (ATCC, #CRL-1573) with the Super TopFlash vector (Morin, Science 275, 1997, 1787-1790; Molenaar et al., Cell 86 (3), 1996, 391-399). The HEK293 cell line is cultivated at 37° C. and 5% CO2 in DMEM (Life Technologies, #41965-039), supplemented with 2 mM glutamine, 20 mM HEPES, 1.4 mM pyruvate, 0.15% Na-bicarbonate and 10% foetal bovine serum (GIBCO, #10270). Stable transfectants were generated by selection with 300 μg/ml Hygromycin.
as §1, §2, §3

[3] = HEK293 FOP control reporter cells, 16 hours, luciferase, dilution series from 50 μM
[4] = HEK293 TOP reporter cell line, Wnt-3a at EC50, 16 hours incubation, compound dilution series 50 μM to 15 nM
[5] = HEK293 TOP reporter cells, Wnt3a at EC50, 16 hours, luciferase
[6] = HEK293 FOP control reporter cell line, 16 hours incubation, compound dilution series 50 μM to 15 nM

IC50 [2, 4] [µM]	IC50 [2, 5] [µM]	SMILES	IC50 [1, 3] [µM]	IC50 [1, 6] [µM]
12	12	O=C(Nc1ccc(NC(=O)c2[nH]cnc2C(=O)N2CC3(COC3)C2)cc1)c1ccc(F)cc1 [Example 34, N-{4-[(4-fluorobenzoyl)amino]phenyl}-5-(2-oxa-6-azaspiro[3.3]hept-6-ylcarbonyl)-1H-imidazole-4-carboxamide]	≥ 50	
2.3	2.3	CNC(=O)c1nc[nH]c1C(=O)Nc1ccc(NC(=O)c2c(F)cccc2F)cc1 [Example 38, N^5-{4-[(2,6-difluorobenzoyl)amino]phenyl}-N^4-methyl-1H-imidazole-4,5-dicarboxamide]	14	14
12	12	CNC(=O)c1nc[nH]c1C(=O)Nc1ccc(NC(=O)c2ccc(OC)c(OC)c2OC)cc1 [Example 40, N^4-methyl-N^5-{4-[(2,3,4-trimethoxybenzoyl)amino]phenyl}-1H-imidazole-4,5-dicarboxamide]	≥ 50	
3.35		CNC(=O)c1nc[nH]c1C(=O)Nc1ccc(NC(=O)c2ccccc2C(F)(F)F)cc1 [Example 58, N^4-methyl-N^5-(4-{[2-(trifluoromethyl)benzoyl]amino}phenyl)-1H-imidazole-4,5-dicarboxamide]		29
12		CNC(=O)c1nc[nH]c1C(=O)Nc1ccc(NC(=O)c2ccc(F)cc2)c(F)c1 [Example 76, N^5-{3-fluoro-4-[(4-fluorobenzoyl)amino]phenyl}-N^4-methyl-1H-imidazole-4,5-dicarboxamide]		7.4
0.51		COC(=O)c1nc[nH]c1C(=O)Nc1ccc(NC(=O)c2ccccc2Cl)c(F)c1 [Example 79, methyl-5-({4-[(2-chlorobenzoyl)amino]-3-fluorophenyl}carbamoyl)-1H-imidazole-4-carboxylate]		8.2
0.39		COC(=O)c1nc[nH]c1C(=O)Nc1ccc(NC(=O)c2ccc(F)cc2Cl)c(C)c1 [Example 83, methyl 5-({4-[(2-chloro-4-fluorobenzoyl)amino]-3-methylphenyl}carbamoyl)-1H-imidazole-4-carboxylate]		29
1.25		CNC(=O)c1nc[nH]c1C(=O)Nc1ccc(NC(=O)c2ccccc2Cl)c(C)c1 [Example 87, N^5-{4-[(2-chlorobenzoyl)amino]-3-methylphenyl}-N^4-methyl-1H-imidazole-4,5-dicarboxamide]		28
4.9		COC(=O)c1nc[nH]c1C(=O)Nc1ccc(NC(=O)c2ccc(F)cc2)c(C)c1 [Example 90, methyl-5-({4-[(4-fluorobenzoyl)amino]-3-methylphenyl}carbamoyl)-1H-imidazole-4-carboxylate]		13
6.95		Cc1cc(NC(=O)c2[nH]cnc2C(=O)NCCN(C)C)ccc1NC(=O)c1ccc(F)cc1 [Example 92, N^4-[2-(dimethylamino)ethyl]-N^5-{4-[(4-fluorobenzoyl)amino]-3-methylphenyl}-1H-imidazole-4,5-dicarboxamide]		13
1.65		COc1cc(NC(=O)c2[nH]cnc2C(=O)NCCN2CCCCC2)ccc1NC(=O)c1ccc(F)cc1 [Example 105, N^5-{4-[(4-fluorobenzoyl)amino]-3-methoxyphenyl}-N^4-[2-(piperidin-1-yl)ethyl]-1H-imidazole-4,5-dicarboxamide]		29
7.25		CC(C)c1nc(C(=O)Nc2ccc(NC(=O)c3ccc(F)cc3Cl)cc2)c(C(=O)NCCN(C)C)[nH]1 [Example 107, N^4-{4-[(2-chloro-4-fluorobenzoyl)amino]phenyl}-N^5-[2-(dimethylamino)ethyl]-2-isopropyl-1H-imidazole-4,5-dicarboxamide]		39
6.75		CC(C)(C)NC(=O)c1[nH]cnc1C(=O)Nc1ccc(NC(=O)c2ccc(F)cc2)cc1 [Example 129, N^5-tert-butyl-N^4-{4-[(4-fluorobenzoyl)amino]phenyl}-1H-imidazole-4,5-dicarboxamide]		15
7.25		CC(C)[C@@H](C)NC(=O)c1[nH]cnc1C(=O)Nc1ccc(NC(=O)c2ccc(F)cc2)cc1 [Example 135, N^4-{4-[(4-fluorobenzoyl)amino]phenyl}-N^5-[(2R)-3-methylbutan-2-yl]-1H-imidazole-4,5-dicarboxamide]		22
2.35		CCNC(=O)c1[nH]cnc1C(=O)Nc1ccc(NC(=O)c2ccc(F)cc2)cc1 [Example 137, N^5-ethyl-N^4-{4-[(4-fluorobenzoyl)amino]phenyl}-1H-imidazole-4,5-dicarboxamide]		8
5.2		CC(C)(C)CNC(=O)c1[nH]cnc1C(=O)Nc1ccc(NC(=O)c2ccc(F)cc2)cc1 [Example 149, N^5-(2,2-dimethylpropyl)-N^4-{4-[(4-fluorobenzoyl)amino]phenyl}-1H-imidazole-4,5-dicarboxamide]		22
0.46		O=C(Nc1ccc(NC(=O)c2nc[nH]c2C(=O)NCCN2CCCC(O)C2)cc1)c1ccccc1Cl (stereo not drawn) [Example 152, N^4-{4-[(2-chlorobenzoyl)amino]phenyl}-N^5-{2-[3-hydroxypiperidin-1-yl]ethyl}-1H-imidazole-4,5-dicarboxamide]		30
2.5		CC(C)(CN1CCCCC1)NC(=O)c1[nH]cnc1C(=O)Nc1ccc(NC(=O)c2ccc(F)cc2)cc1 [Example 156, N^4-{4-[(4-fluorobenzoyl)amino]phenyl}-N^5-[2-methyl-1-(piperidin-1-yl)propan-2-yl]-1H-imidazole-4,5-dicarboxamide]		15
1.2		CC1CCN(CC(C)(C)NC(=O)c2[nH]cnc2C(=O)Nc2ccc(NC(=O)c3ccccc3Cl)cc2)CC1 [Example 158, N^4-{4-[(2-chlorobenzoyl)amino]phenyl}-N^5-[2-methyl-1-(4-methylpiperidin-1-yl)propan-2-yl]-1H-imidazole-4,5-dicarboxamide]		29
4.1		CNC(=O)c1nc[nH]c1C(=O)Nc1ccc(NC(=O)c2cccc(C(F)(F)F)c2Cl)cc1 [Example 358, N^5-(4-{[2-chloro-3-(trifluoromethyl)benzoyl]amino}phenyl)-N^4-methyl-1H-imidazole-4,5-dicarboxamide]		
15.2		CNC(=O)c1nc[nH]c1C(=O)Nc1ccc(NC(=O)c2cc(F)cc(Cl)c2)cc1 [Example 360, N^5-{4-[(3-chloro-5-fluorobenzoyl)amino]phenyl}-N^4-methyl-1H-imidazole-4,5-dicarboxamide]		
50		CNC(=O)c1nc[nH]c1C(=O)Nc1ccc(NC(=O)c2cc(F)c(F)c(Cl)c2)cc1 [Example 362, N^5-{4-[(3-chloro-4,5-difluorobenzoyl)amino]phenyl}-N^4-methyl-1H-imidazole-4,5-dicarboxamide]		
50		CNC(=O)c1nc[nH]c1C(=O)Nc1ccc(NC(=O)c2cccc(OC)c2F)cc1 [Example 365, N^5-{4-[(2-fluoro-3-methoxybenzoyl)amino]phenyl}-N^4-methyl-1H-imidazole-4,5-dicarboxamide]		
50		CNC(=O)c1nc[nH]c1C(=O)Nc1ccc(NC(=O)c2cc(F)cc(C#N)c2)cc1 [Example 371, N^5-{4-[(3-cyano-5-fluorobenzoyl)amino]phenyl}-N^4-methyl-1H-imidazole-4,5-dicarboxamide]		
4.2		CNC(=O)c1nc[nH]c1C(=O)Nc1ccc(NC(=O)c2ccc(F)c(C)c2)cc1 [Example 373, N^5-{4-[(4-fluoro-3-methylbenzoyl)amino]phenyl}-N^4-methyl-1H-imidazole-4,5-dicarboxamide]		
50		CC(C)OCCCNC(=O)c1nc[nH]c1C(=O)Nc1ccc(NC(=O)c2ccc(F)cc2Cl)cc1 [Example 383, N^5-{4-[(2-chloro-4-fluorobenzoyl)amino]phenyl}-N^4-[3-(propan-2-yloxy)propyl]-1H-imidazole-4,5-dicarboxamide]		
0.71		O=C(Nc1ccc(NC(=O)c2[nH]cnc2C(=O)NCCN2CCCC2=O)cc1)c1ccc(F)cc1Cl [Example 398, N^5-{4-[(2-chloro-4-fluorobenzoyl)amino]phenyl}-N^4-[2-(2-oxopyrrolidin-1-yl)ethyl]-1H-imidazole-4,5-dicarboxamide]		
1.2		O=C(Nc1ccc(NC(=O)c2[nH]cnc2C(=O)NCCN2CCNC2=O)cc1)c1ccc(F)cc1Cl [Example 399, N^5-{4-[(2-chloro-4-fluorobenzoyl)amino]phenyl}-N^4-[2-(2-oxoimidazolidin-1-yl)ethyl]-1H-imidazole-4,5-dicarboxamide]		
